Test results as given in US4003936A, “2-Hydrocinnampyl-1,3-cyclopentanediones” (Zaidan Hojin Biseibutsu Kagaku Kenkyu Kai, priority 1970, dated 1977).
Values belong to the compound of their own block, whether it stands above or below them.

Key:
tyrosine hydroxylase = target: T1, tyrosine hydroxylase (Bos taurus, UniProt P17289); experiment: inhibition of tyrosine hydroxylase (method of J. Antibiot. 23, 514 (1970)); assay type: biochemical; parameters: inhibition: dose or concentration left out as unconfirmed; details: for inhibition at 0.1 mg: at 100 meg. (figure after the slash in the cell); for inhibition at 0.1 mg / inhibition at 0.05 mg / inhibition: read-out: Inhibition of the product (1a) to tyrosine hydroxylase; for inhibition at 0.05 mg: at 50 meg. (figure after the slash in the cell); for inhibition: at 200 meg. (figure after the slash in the cell)
T1 sequence (P17289 1-491): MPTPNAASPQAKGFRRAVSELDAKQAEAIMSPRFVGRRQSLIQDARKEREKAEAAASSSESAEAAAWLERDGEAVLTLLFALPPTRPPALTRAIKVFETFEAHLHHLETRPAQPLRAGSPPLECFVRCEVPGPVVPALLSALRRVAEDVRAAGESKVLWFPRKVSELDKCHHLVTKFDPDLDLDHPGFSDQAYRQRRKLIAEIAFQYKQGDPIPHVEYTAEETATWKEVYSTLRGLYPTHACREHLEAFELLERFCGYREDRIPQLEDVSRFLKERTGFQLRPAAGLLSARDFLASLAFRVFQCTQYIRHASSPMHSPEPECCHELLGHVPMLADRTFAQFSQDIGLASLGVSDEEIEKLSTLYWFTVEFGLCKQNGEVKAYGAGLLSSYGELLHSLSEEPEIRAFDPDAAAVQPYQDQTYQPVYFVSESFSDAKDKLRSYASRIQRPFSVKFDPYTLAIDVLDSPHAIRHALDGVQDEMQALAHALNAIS
Description: (§1) Pharmacological properties of the new compounds of the present invention are now described. The new compounds of the present invention have been examined for their biological activities, and their inhibition to tyrosine hydroxylase are summarised in Table 2 later. The details of the test methods used and the close relationship of the biological activities between in vitro and in vivo are well presented in some published literatures (for example, see "J. Antibiot." 23, 514 (1970) and "J. Am. Chem. Soc." 93, 1285 (1971)). For instance, 2-(2-hydroxyhydrocinnamoyl)-1,3-cyclopentanedione, typical one of the new compounds of the present invention, was tested by dissolving in distilled water (pH was adjusted to 2.5) and administering to mice. […] Effect of this compound on tyrosine hydroxylase was also tested by the method described in the "Journal of Antibiotics" 23, 514 (1970).
In these Examples, various derivatives of 2cinnamoyl-1,3-cyclopentanedione of the formula [IVa] as prepared in Examples 3 - 34 were converted into the corresponding derivatives of 2-hydrocinnamoyl-1,3-cyclopentanedione of the formula [Ia] by hydrogenating them in the same manner as in the catalytic hydrogenation step of Example 1 (3). Nature of R1 and R2 in the resulting hydrogenation products 2-hydrocinnamoyl-1,3-cyclopentanediones [Ia], their yields, melting point and elementary analysis data are summarised in Table 2 with reference to the amount and nature of the catalyst and solvent which were employed in the catalytic hydrogenation step. In Table 2, there are also shown the degrees of inhibition (%) of the produced derivatives of 2-hydrocinnamoyl-1,3-cyclopentanedione [Ia] to tyrosine hydroxylase to provide a measure of their biological properties, the inhibition degrees as shown being determined by the same method as that used to estimate the inhibition % of 2-(2-hydroxyhydrocinnamoyl)-1,3-cyclopentanedione as mentioned above.

rats [1] = experiment: blood pressure of rats on daily injection or oral administration; assay type: in vivo
Protocol: (§2) Hydroxylation of tyrosine is the rate-limiting step of norepinephrine biosynthesis. Therefore, inhibition of tyrosine hydroxylase results in inhibition of norepinephrine synthesis in vivo which results in lowering the blood pressure. […] The hypotensive effect can be seen more markedly, when it is given to genetically hypertensive rats which was developed by Prof. Okamoto, Midical School, University of Kyoto. When 6.25 mg/Kg. was intraperitoneally injected to a rat of 185 mm. blood pressure and another rat of 188 mm., then the blood pressure was lowered to […]. and 118-162 mm. respectively during 1-22 hours after the injection. When 125 mg/Kg. was intraperitoneally injected to a rat of 195 mm., the pressure was reduced to 155-166 mm. during 1-22 hours after the injection. […] It caused 20-30% reduction which continued for about 5 days after the last oral administration.

[2] = system: genetically hypertensive rats; experiment: hypotensive effect in genetically hypertensive rats; assay type: in vivo; details: for blood pressure after injection: 1-22 hours after the injection
Protocol: as §2

[3] = acute toxicity (LD50) in mice; details: mouse, in vivo, dissolved in distilled water pH 2.5
Description: as §1

hypertensive patients = experiment: daily administration to hypertensive patients for 30 days; assay type: in vivo, human; details: 300 mcg daily divided into three times
mice = experiment: sedative effect after injection of a large dose, mice; assay type: in vivo
rats [4] = experiment: sedative effect after injection of a large dose, rats; assay type: in vivo
[5] = oral, daily 3.1, 6.25, 12.5, 25 mg/Kg for three days

inhibition at 0.1 mg (tyrosine hydroxylase): 60%
Structure (SMILES): O=C1CCC(=O)C1C(=O)CCc1ccccc1 [Example 35, 2-hydrocinnamoyl-1,3-cyclopentanedione]

inhibition at 0.05 mg (tyrosine hydroxylase): 32%
Structure (SMILES): O=C1CCC(=O)C1C(=O)CCc1ccc(O)cc1 [Example 40, 2-(4-Hydroxyhydrocinnamoyl)-1,3-cyclopentanedione]

inhibition at 0.1 mg (tyrosine hydroxylase): 29%
Structure (SMILES): COc1ccc(CCC(=O)C2C(=O)CCC2=O)cc1 [Example 41, 2-(4-Methoxyhydrocinnamoyl)-1,3-cyclopentanedione]

inhibition at 0.1 mg (tyrosine hydroxylase): 42%
Structure (SMILES): O=C1CCC(=O)C1C(=O)CCc1ccc(Cl)cc1 [Example 43, 2-(4-chlorohydrocinnamoyl)-1,3-cyclopentanedione]

inhibition at 0.1 mg (tyrosine hydroxylase): 36%
Structure (SMILES): O=C1CCC(=O)C1C(=O)CCc1cccc(F)c1 [Example 44]

inhibition (tyrosine hydroxylase): 62%
Structure (SMILES): O=C1CCC(=O)C1C(=O)CCc1ccc(F)cc1 [Example 45, 2-(4-Fluorohydrocinnamoyl)-1,3-cyclopentanedione]

inhibition at 0.05 mg (tyrosine hydroxylase): 50%
Structure (SMILES): O=C1CCC(=O)C1C(=O)CCc1ccc(Br)cc1 [Example 48]

inhibition (tyrosine hydroxylase): 44%
Structure (SMILES): Cc1ccc(CCC(=O)C2C(=O)CCC2=O)cc1 [Example 49, 2-(4-methylhydrocinnamoyl)-1,3-cyclopentanedione]

inhibition (tyrosine hydroxylase): 41%
Structure (SMILES): COC(=O)c1ccc(CCC(=O)C2C(=O)CCC2=O)cc1 [Example 50, 2-(4-Methoxycarbonylhydrocinnamoyl)-1,3-cyclopentanedione]

inhibition (tyrosine hydroxylase): 15.6%
Structure (SMILES): CCOc1ccc(CCC(=O)C2C(=O)CCC2=O)cc1 [Example 52]

inhibition (tyrosine hydroxylase): 50.7%
Structure (SMILES): O=C1CCC(=O)C1C(=O)CCc1cccc(Br)c1 [Example 53]

inhibition (tyrosine hydroxylase): 36.8%
Structure (SMILES): CC(C)c1ccc(CCC(=O)C2C(=O)CCC2=O)cc1 [Example 54]

inhibition (tyrosine hydroxylase): 12.8%
Structure (SMILES): CCOC(=O)c1ccc(CCC(=O)C2C(=O)CCC2=O)cc1 [Example 55]

inhibition (tyrosine hydroxylase): 77.4%
Structure (SMILES): N#Cc1ccc(CCC(=O)C2C(=O)CCC2=O)cc1 [Example 57]

inhibition (tyrosine hydroxylase): 10.1%
Structure (SMILES): CN(C)c1ccc(CCC(=O)C2C(=O)CCC2=O)cc1 [Example 58]

Further lines, the compound ahead of its results:

Structure (SMILES): O=C1CCC(=O)C1C(=O)CCc1ccccc1O [Example 38, 2-(2-hydroxyhydrocinnamoyl)-1,3-cyclopentanedione]
effect on blood pressure (rats [1]): lowered the blood pressure | blood pressure after injection ([2]; 6.25 mg/Kg intraperitoneally, rat of 185 mm. blood pressure): 25-155 mm. | blood pressure after injection ([2]; 6.25 mg/Kg intraperitoneally, rat of 188 mm. blood pressure): 118-162 mm. | blood pressure after injection ([2]; 125 mg/Kg intraperitoneally, rat of 195 mm. blood pressure): 155-166 mm. | duration of the blood pressure reduction after the last oral administration [2, 5]: about 5 days | reduction of blood pressure [2, 5]: 20-30% | LD50 ([3]; ip, intraperitoneal injection): 283 mg/kg | LD50 ([3]; oral administration): 550 mg/kg | hypotensive effect (hypertensive patients): showed hypotensive effect | side effect (hypertensive patients): without any side effect | inhibition to tyrosine hydroxylase (tyrosine hydroxylase; at 12.5 mcg/cc): 30% | inhibition to tyrosine hydroxylase (tyrosine hydroxylase; at 25 mcg/cc): 38% | inhibition to tyrosine hydroxylase (tyrosine hydroxylase; at 50 mcg/cc): 44% | inhibition at 0.1 mg (tyrosine hydroxylase): 52% | relation with 2-amino-4-hydroxy-6,7-dimethyltetrahydropteridine (Lineweaver-Burk plot) (tyrosine hydroxylase; cofactor 2-amino-4-hydroxy-6,7-dimethyltetrahydropteridine): competitive | relation with tyrosine (Lineweaver-Burk plot) (tyrosine hydroxylase; substrate tyrosine): uncompetitive | sedative effect (mice): did not cause sleeping and the sedative effect was not recognized | sedative effect (rats [4]): did not cause sleeping and the sedative effect was not recognized

Structure (SMILES): O=C1CCC(=O)C1C(=O)CCc1cccc(O)c1 [Example 39, 2-(3-hydroxyhydrocinnamoyl)-1,3-cyclopentanedione]
inhibition at 0.1 mg (tyrosine hydroxylase): 23%

Structure (SMILES): O=C1CCC(=O)C1C(=O)CCc1ccccc1Cl [Example 42, 2-(2-chlorohydrocinnamoyl)-1,3-cyclopentanedione]
inhibition at 0.1 mg (tyrosine hydroxylase): 10%

Structure (SMILES): O=C1CCC(=O)C1C(=O)CCc1ccccc1F [Example 46]
inhibition (tyrosine hydroxylase): 53%

Structure (SMILES): COc1ccccc1CCC(=O)C1C(=O)CCC1=O [Example 47]
inhibition (tyrosine hydroxylase): 7.6%

Structure (SMILES): COc1cccc(CCC(=O)C2C(=O)CCC2=O)c1 [Example 51]
inhibition (tyrosine hydroxylase): 6.4%

Structure (SMILES): CCCOC(=O)c1ccc(CCC(=O)C2C(=O)CCC2=O)cc1 [Example 56]
inhibition (tyrosine hydroxylase): 4.6%

Structure (SMILES): O=C1CCC(=O)C1C(=O)CCc1cccc(C(F)(F)F)c1 [Example 59]
inhibition (tyrosine hydroxylase): 30.5%

Structure (SMILES): CC(=O)Oc1ccccc1CCC(=O)C1C(=O)CCC1=O [Example 60]
inhibition at 0.1 mg (tyrosine hydroxylase): 10%

Structure (SMILES): COc1cc(CCC(=O)C2C(=O)CCC2=O)ccc1O [Example 61, 2-(4-Hydroxy-3-methoxyhydrocinnamoyl)-1,3-cyclopentanedione]
inhibition to tyrosine hydroxylase (tyrosine hydroxylase; at 200 mcg/cc): about 10%

Structure (SMILES): O=C1CCC(=O)C1C(=O)CCc1ccc(Cl)c(Cl)c1 [Example 62, 2-(3,4-dichlorohydrocinnamoyl)-1,3-cyclopentanedione]
inhibition to tyrosine hydroxylase (tyrosine hydroxylase; at 100 mcg/cc): 45%

Structure (SMILES): O=C1CCC(=O)C1C(=O)CCc1ccc2c(c1)OCO2 [Example 63, 2-(3,4-methylenedioxyhydrocinnamoyl)-1,3-cyclopentanedione]
inhibition to tyrosine hydroxylase (tyrosine hydroxylase; at 100 mcg/cc): 22.5%

Structure (SMILES): COc1ccc(CCC(=O)C2C(=O)CCC2=O)cc1O [Example 64, 2-(3-hydroxy-4-methoxyhydrocinnomoyl)-1,3-cyclopentanedione]
inhibition to tyrosine hydroxylase (tyrosine hydroxylase; at 200 mcg/cc): 29.5%

Structure (SMILES): COc1cccc(CCC(=O)C2C(=O)CCC2=O)c1O [Example 65, 2-(2-hydroxy-3-methoxyhydrocinnamoyl)-1,3-cyclopentanedione]
inhibition to tyrosine hydroxylase (tyrosine hydroxylase; at 100 mcg/cc): 5%

Structure (SMILES): O=C1CCC(=O)C1C(=O)CCc1ccc(O)c(O)c1 [Example 66, 2-(3,4-dihydroxyhydrocinnamoyl)-1,3-cyclopentanedione]
inhibition to tyrosine hydroxylase (tyrosine hydroxylase; at 100 mcg/cc): 85%
